Patent US11684614B2, “Formulations of hydroxypyridonate actinide/lanthanide decorporation agents” (priority 2017, dated 2023)
“And” between values parts separate entries of the source, which are not always exact repeats. Equal values may be shown once.

Assay: Repeated-treatment efficacy for removing an intravenous dose of 238Pu (excretion, tissue retention, clinical observations), female and male arms;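 for % Recovered Dose ART: abdominal tissue remainder incl GI tract reproductive organs spleen bladder and fat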
Type: in vivo, Swiss-Webster mice
Details: male animals, listed as 3,4,3-LI(1,2-HOPO); for % Recovered Dose Urine per Day, Day 3 / % Recovered Dose Urine per Day, Day 4 / % Recovered Dose Urine per Day, Day 5 / % Recovered Dose Urine per Day, Day 6 / % Recovered Dose Urine per Day, Day 7 / % Recovered Dose Urine per Day, Day 2 / % Recovered Dose Urine per Day, Day 1: Day 7 necropsy
Description: The objective of this study was to characterize the efficacy of 3,4,3-L1(1,2-HOPO) at enhancing elimination from an internal plutonium burden in female and male Swiss-Webster mice administered a soluble citrate complex of ^238Pu and treated multiple times, starting at 24 hours after the exposure. Efficacy was evaluated by comparing the tissue contents, urinary and fecal excretions of ^238Pu in treated animals versus untreated animals.
The medical countermeasure 3,4,3-L1(1,2-HOPO) was administered parenterally (ip) or orally (po) via consecutive injections or gavages (six daily or twelve twice daily) starting at 24 hours post contamination at the following four selected doses: 30 μmol/kg ip, 150 μmol/kg po, 300 μmol/kg po, and 600 μmol/kg po (equivalent to respective approximate human doses range of […], using the accepted conversion system of mouse doses into human equivalent doses—HED—based on body surface area). Oral doses also included the permeability enhancer selected during formulation development work.
• Challenge isotope: ^238Pu • Challenge dose: 25 nCi (i.e., approximately 0.8 μCi/kg) • Route of contamination: Intravenous (iv) tail-vein • Route of treatment: Intraperitoneal Injection (ip) or Oral (po) • Frequency of treatment: Multiple (once- or twice-daily for 6 days) doses, starting 24 hr postcontamination • Treatment dose calculation: Dose calculations (mg/kg or μmol/kg) for the decorporation agent were based on the individual body weight measured after contamination. • Study Duration: 11 days, in-life
c. […] Test article and control dose formulations were prepared within 1 day of dose administration, by weighing out the appropriate amount of test article, dispersing in vehicle. For ip solutions, the test article was used alone, while for oral suspensions, a mixture of test article and excipient (90:10, w:w) was used. The pH was adjusted to 7.0-7.4 for ip administration and 5.0-5.5 for oral administration with sterile NaOH. Dose formulations were prepared at room temperature and filter-sterilized. • Storage: 2-8° C.; refrigerated; protected from light. • Characterization: The concentration of each test article formulation was verified by high-performance liquid chromatography-mass spectrometry. • Test Article Handling: Test, reference, and control article formulations were handled with the use of eye protection, gloves, and a protective laboratory coat. • Correct Dose Assurance: The test article was weighed with calibrated balances. The administration of each dose formulation was properly documented, and the amount administered to each animal recorded.
e. Experimental Procedures (In-Life Evaluations and Euthanasia) • Contamination: Single administration by intravenous (iv) tail-vein injection (0.2 mL injection volume) under isoflurane anesthesia. Three standard 0.2 mL injections were performed into polyethylene bottles and pre-loaded with aliquots of concentrated nitric acid on each injection day. Six female and six male mice were culled for necropsy 1 hr post-contamination and were used as standards. A11 standards were processed and counted together with the final samples to allow verification of the contamination dose. • Dose Administration: Single administration by intraperitoneal injection (ip) or oral gavage (po) under isoflurane anesthesia. • Mortality/Morbidity: Assessed at least once daily. • Clinical Observations: Recorded once daily (4 hr post-dose on day of treatment), or more often as clinical signs warranted. […]

O=C(NCCCN(CCCCN(CCCNC(=O)c1cccc(=O)n1O)C(=O)c1cccc(=O)n1O)C(=O)c1cccc(=O)n1O)c1cccc(=O)n1O [3,4,3-L1(1,2-HOPO)]
% Recovered Dose Urine per Day, Day 3 (animal group B): 0.61% and 1.15% and 1.12% and 1.18%
% Recovered Dose Urine per Day, Day 4 (animal group B): 1.30% and 0.41% and 0.54% and 0.89%
% Recovered Dose Urine per Day, Day 5 (animal group B): 0.61% and 0.58% and 0.10% and 0.65%
% Recovered Dose Urine per Day, Day 6 (animal group B): 0.18% and 0.64% and 0.10%
% Recovered Dose Urine per Day, Day 7 (animal group B): 0.17% and 0.37% and 0.28% and 0.50%
% Recovered Dose Urine per Day, Day 2 (animal group C): 1.72% and 4.28% and 3.19% and 0.38%
% Recovered Dose Urine per Day, Day 3 (animal group C): 0.95% and 1.32% and 0.98% and 0.50%
% Recovered Dose Urine per Day, Day 4 (animal group C): 0.59% and 1.17% and 0.68% and 0.55%
% Recovered Dose Urine per Day, Day 5 (animal group C): 0.35% and 0.65% and 0.33% and 0.19%
% Recovered Dose Urine per Day, Day 6 (animal group C): 0.19% and 0.70% and 0.52% and 0.07%
% Recovered Dose Urine per Day, Day 7 (animal group C): 0.10% and 0.94% and 0.45% and 0.11%
% Recovered Dose Urine per Day, Day 1 (animal group E): 21.72% and 14.01% and 18.66% and 17.47%
% Recovered Dose Urine per Day, Day 2 (animal group E): 3.64% and 2.67% and 3.46% and 2.04%
% Recovered Dose Urine per Day, Day 3 (animal group E): 1.49% and 0.90% and 1.61% and 1.12%
% Recovered Dose Urine per Day, Day 4 (animal group E): 0.67% and 0.69% and 0.59% and 0.53%
% Recovered Dose Urine per Day, Day 5 (animal group E): 0.39% and 0.62% and 0.41%
% Recovered Dose Urine per Day, Day 6 (animal group E): 0.49% and 0.53% and 0.46% and 0.31%
% Recovered Dose Urine per Day, Day 7 (animal group E): 0.21% and 0.41% and 0.23% and 0.27%
% Recovered Dose Urine per Day, Day 1 (animal group F): 19.31% and 19.65% and 13.22% and 25.18%
% Recovered Dose Urine per Day, Day 2 (animal group F): 3.62% and 1.94% and 2.38% and 2.07%
% Recovered Dose Urine per Day, Day 3 (animal group F): 1.51% and 1.15% and 1.06%
% Recovered Dose Urine per Day, Day 4 (animal group F): 0.98% and 0.55% and 0.74% and 0.83%
% Recovered Dose Urine per Day, Day 5 (animal group F): 0.45% and 0.42% and 0.47% and 0.41%
% Recovered Dose Urine per Day, Day 6 (animal group F): 0.45% and 0.47% and 0.36% and 0.29%
% Recovered Dose Urine per Day, Day 7 (animal group F): 0.55% and 0.40% and 0.72% and 0.26%
% Recovered Dose ART (Day-7 necropsy, animal group B): 2.16% and 1.57% and 1.65% and 1.32%
% Recovered Dose Combined Body (Day-7 necropsy, animal group B): 52.05% and 37.93% and 50.13% and 45.55%
% Recovered Dose Combined Excreta (Day-7 necropsy, animal group B): 47.95% and 62.07% and 49.87% and 54.45%
% Recovered Dose Kidney (Day-7 necropsy, animal group B): 0.29% and 0.25% and 0.26% and 0.45%
% Recovered Dose SKEL (Day-7 necropsy, animal group B): 15.55% and 20.00% and 23.24% and 20.71%
% Recovered Dose SOFT (Day-7 necropsy, animal group B): 3.27% and 3.41% and 2.67% and 3.29%
% Recovered Dose Total Feces (Day-7 necropsy, animal group B): 22.40% and 40.49% and 26.02% and 32.13%
% Recovered Dose Total Urine (Day-7 necropsy, animal group B): 25.54% and 21.58% and 23.85% and 22.32%
% Recovered Dose ART (Day-7 necropsy, animal group C): 1.42% and 1.55% and 1.84% and 1.39%
% Recovered Dose Combined Body (Day-7 necropsy, animal group C): 44.39% and 38.12% and 45.21% and 38.36%
% Recovered Dose Combined Excreta (Day-7 necropsy, animal group C): 55.61% and 61.88% and 54.79% and 61.64%
